Reference: patent publication US8350097B2, “Therapeutic compounds” (priority 2007, dated 2013)

Experiments:
[1] = Anesthetic effects in rats, bolus IV (LORR model of general anesthesia); type: in vivo, rat; settings: male, Sprague-Dawley, rat, in vivo, read-out: MTD (maximum tolerated dose)
Experimental: (§1) Also measured was minimum dose to achieve LORR and maximum tolerated dose (MTD).
(§2) The ranges of doses studied were 2, 3, 4, 7, 14 and 21 mg/kg for Compound 1 and 3.5, 4.0, 7.0 and 14.0 mg/kg for […].

male Sprague-Dawley rats = assay: as above; type: in vivo, rat
Experimental: as §1, §2

Beagle dogs = assay: Hemodynamic effects (blood pressure) in beagle dogs, bolus IV; type: in vivo, dog; settings: 4 min after bolus IV
Experimental: The study was a crossover design. […] The MTD was defined as the dose that reduced mean arterial blood pressure (MAP) by 50% or to less than 50 millimeters of mercury (mmHg or mm Hg). All animals received supplemental oxygen and, if needed, ventilatory support after 4 min of apnea.
Hemodynamic data, such as mean arterial pressure (MAP), were recorded at baseline, 1, 2, 4, 8, 15, 20 and 30 min. Compound 1 was administered at 5, 10, 15 and 30 mg/kg to 6, 4, 3 and 3 dogs respectively. […] Data were analyzed with a 2-way ANOVA followed by t-test with Bonferroni correction for multiple comparisons.

[2] = test system: commercial farm-bred swine; type: in vivo, pig; settings: pigs, 0.6 mg per kg per min
Experimental: Experiments were performed on commercial farm-bred swine of either sex (mean weight 33.6 kg). Anesthesia was induced with isoflurane. Intravascular access was obtained from an ear vein. Each pig was intubated and mechanically ventilated. Tissue oxygenation was monitored using continuous pulse oximetry placed on the tongue. Ventilation was monitored using an inspired/expired gas analyzer that measured oxygen, carbon dioxide, and potent inhalation agent concentrations. Ventilator settings were adjusted as needed to maintain steady state.
ECG was monitored throughout the study. Arterial blood pressure was monitored through the cannulated left femoral artery. MAP, systolic and diastolic arterial pressures and heart rate were collected every 5 seconds. An internal jugular vein was cannulated with a pulmonary artery catheter for thermodilution estimates of cardiac output and blood temperature. Body temperature was maintained at 37° C.

Male descented ferrets = assay: Pro-emetic activity in ferrets; settings: 6 ferrets, IV infusion 15 min at 1 mg/kg/min, 45 min observation
Experimental: Male descented ferrets weighing 1.0-1.5 kg with vascular access ports in the jugular vein were housed on a 12/12-hour light/dark cycle under controlled temperature, with food and water provided ad libitum. On each study day, food was presented to ferrets one hour prior to dosing. Immediately prior to dosing, food and water were removed. A 1% Compound 1 formulation, prepared as described in Example 2 and formulated in accordance with Example 5, or […] was administered by IV infusion to the ferrets; see Wynn R L et al, 1993, Eur J Pharmacol 241, 42 re […] administration in ferrets. After administration of Compound 1 or […], animals were placed in clean, transparent cages (with lids) and left unrestrained for a 45-min observation period by an observer blinded to the specific treatment administered.
Episodes of retching and/or vomiting were considered separate episodes when the interval between retches and/or vomits exceeded 5 sec.

[3] = Aqueous phase concentration in lipid emulsion (pain on injection surrogate), ultrafiltration + LC/MS/MS; type: physicochemical; settings: for reduction in aqueous phase concentration compared to propofol in identical formulations: 1% lipid emulsions formulated per Example 5
Experimental: The concentration of Compound 1 in the aqueous phase (aqueous phase concentration) of a lipid emulsion formulation was determined.
A one percent (1%) Compound 1 formulation was formulated in accordance with Example 5, Compound 1 being prepared as described in Example 2.

[4] = test system: commercial farm-bred swine; assay: Hemodynamic effects, blood gas and serum chemistry in anesthetized ventilated pigs, IV infusion; type: in vivo, pig; settings: IV infusion 0.6 mg/kg/min
Experimental: Anesthesia was induced with isoflurane. Intravascular access was obtained from an ear vein. Each pig was intubated and mechanically ventilated.
ECG was monitored throughout the study. […] Body temperature was maintained at 37° C.
Arterial blood gas samples from pigs infused with Compound 1 were taken and analyzed for blood gas and serum chemistry values.

CC[C@@H](C)c1cccc(C(C)C)c1O [Compound 1, (R)-(−)-2-sec-butyl-6-isopropylphenol]
MTD [1]: 14 mg/kg
HD50 (dose required to cause 50% of the rats to lose righting reflex) (male Sprague-Dawley rats): 2.3 mg/kg
HD7 min (dose required to produce 7 minutes of anesthesia) (male Sprague-Dawley rats): 3.4 mg/kg
TI (therapeutic index; ratio of MTD to HD7 min) (male Sprague-Dawley rats): 4.1
production of LORR by dose (male Sprague-Dawley rats; 6 rats per dose group): LORR at all doses of at least 3 mg/kg
deaths (male Sprague-Dawley rats; 6 rats per dose group, dose as stated): Three rats died when administered 21 mg/kg
MAP % change from baseline (Beagle dogs; 10 mg/kg): 5%
MAP % change from baseline (Beagle dogs; 15 mg/kg): −19%
MAP % change from baseline (Beagle dogs; 30 mg/kg): −41%
IV infusion time producing maximal suppression of BIS (<10) [2]: 17.3 ± 1.9 min
episodes of vomiting or retching, drug administered alone (Male descented ferrets): did not produce any episodes of vomiting or retching
reduction in aqueous phase concentration compared to propofol in DIPRIVAN ([3]; 1% Compound 1 formulation vs DIPRIVAN): 57%
reduction in aqueous phase concentration compared to propofol in identical formulations [3]: 72%
reduction in aqueous phase concentration compared to propofol in identical formulations ([3]; listed as (R)-(−)-2-sec-butyl-6-isopropylphenol): more than 70%
aqueous phase concentration ([3]; aqueous phase of 1% lipid emulsion separated by ultrafiltration): 1.78 ± 0.17 µg/mL
metabolic alterations (arterial blood gas and serum chemistry) [4]: did not produce any significant metabolic alterations
